Results reported in article PMC7588913, “A Peptide Found in Human Serum, Derived from the C-Terminus of Albumin, Shows Antifungal Activity In Vitro and In Vivo” (Microorganisms, 2020).
Read-outs that look alike come from different tables or passages of the source. Where a SMILES comes first, the peptide text is derived from it.

Columns and labels:
human erythrocytes = format: cell-based
Method: (§1) The hemolytic and cytotoxic activity of the selected peptides (25, 50 and 100 μM) was evaluated as previously described. For the evaluation of hemolytic activity, peptides were added to human erythrocytes (blood group 0 Rh+, final concentration, 2.5% v/v) and hemoglobin release was estimated after 30 and 120 min incubation by measuring the absorbance of the supernatant at 540 nm. Erythrocytes suspended in phosphate buffered saline (PBS) and Triton 1% were the controls for zero (blank) and 100% hemolysis, respectively. Cytotoxicity against Rhesus monkey kidney epithelial cells (LLC-MK2 line) treated with peptides for 24 h was assessed after resazurin addition by measuring fluorescence intensity at 572 nm. Cells in medium without peptide served as control (100% viability). Each assay was carried out in duplicate and at least 2 independent replicates were performed for each experiment.
(§2) Data are reported as the mean ± SD. Statistical significance was assessed by t test, p < 0.05 was considered significant.

LLC-MK2 cells = format: cell-based, Rhesus monkey
Method: as §1, §2

C. albicans SC5314 = assay: Colony forming unit (CFU) candidacidal assay; format: cell-based, Candida albicans; conditions: 100 μg/mL vs reference strain C. albicans SC5314, CFU assay
Method: The fungicidal activity of the selected peptides was evaluated in vitro by a previously described colony forming unit (CFU) assay. All peptides were preliminarily tested at the concentration of 100 μg/mL vs. the reference strain C. albicans SC5314. […] After incubation at 37 °C for 6 h in the presence or absence (control growth) of the peptides, fungal cell suspensions (approximately 500 cells/100 μL of distilled water) were spread on Sabouraud Dextrose agar plates. After incubation at 30 °C for 48–72 h, CFUs were enumerated. Each assay was carried out in triplicate and at least 2 independent experiments were performed for each condition. EC50 values were calculated by nonlinear regression analysis using Graph Pad Prism 4.01 software, San Diego, CA, USA. Time kinetics of K13L-mediated killing against the reference C. albicans strain was determined by CFU assays, as described above, after incubation of yeast cells for 30 min, 1, 2, 4 and 6 h with K13L at different concentrations.

Galleria mellonella = assay: In vivo toxicity in Galleria mellonella larvae; conditions: K13L 33.33 mg/kg into the haemocoel, 37 °C, monitored 9 days, Mantel–Cox log-rank test
Method: The potential therapeutic activity of K13L was evaluated by the G. mellonella model of experimental candidiasis, according to a previously described procedure. To preliminarily evaluate in vivo toxicity, a solution of K13L (33.33 mg/kg) was inoculated directly into the haemocoel, via the last left pro-leg, in larvae at their final instar stage (body weight, 300 ± 20 mg, 10 μL/larva). Larvae inoculated with 10 μL of saline solution and untouched larvae served as controls. All animals were incubated at 37 °C in the dark and monitored daily for survival for 9 days. For the evaluation of therapeutic activity, larvae (16/group) were challenged with C. albicans SC5314 (5 × 10^5 yeast cells/larva, 10 μL) via the last left pro-leg. A solution of K13L (16.66 mg/kg,) or saline (control) was injected 60 min later, via the last right proleg (10 μL). Larvae were monitored daily for 9 days after infection. The log rank (Mantel–Cox) test was used to compare survival curves by Graph Pad Prism software.

| SMILES | Hemolysis (%) (human erythrocytes; 25 µM) | Cell Viability (%) (LLC-MK2 cells; 25 µM) | Cell Viability (%) (LLC-MK2 cells; 50 µM) | Cell Viability (%) (LLC-MK2 cells; 100 µM) | Hemolysis (%) (human erythrocytes; 50 µM) | Fungicidal activity in preliminary assay (C. albicans SC5314) | Survival of larvae vs saline-inoculated larvae (in vivo toxicity) (Galleria mellonella) |
| --- | --- | --- | --- | --- | --- | --- | --- |
| CC[C@H](C)[C@H](NC(=O)[C@H](CCCCN)NC(=O)[C@H](CO)NC(=O)CNC(=O)[C@H](CC(C)C)NC(=O)[C@H](CO)NC(=O)[C@H](Cc1ccccc1)NC(=O)[C@H](CCC(N)=O)NC(=O)[C@H](CC(C)C)NC(=O)[C@H](CCC(=O)O)NC(=O)[C@H](CCC(=O)O)NC(=O)[C@H](CCC(=O)O)NC(=O)[C@H](CC(C)C)NC(=O)CN)C(=O)N[C@@H](CC(N)=O)C(=O)N[C@H](C(=O)N[C@@H](CCCCN)C(=O)O)C(C)C [Peptide G17K] (H-GLEEELQFSLGSKINVK-OH) | 0.00% | 99.07 ± 1.57% | 99.73 ± 0.45% | 99.07 ± 1.57% |  |  |  |
| C[C@H](NC(=O)[C@H](CCC(=O)O)NC(=O)[C@H](CO)NC(=O)CNC(=O)[C@H](C)NC(=O)[C@H](CCC(=O)O)NC(=O)[C@@H](N)CC(=O)O)C(=O)N[C@@H](CC(=O)O)C(=O)N[C@@H](Cc1c[nH]cn1)C(=O)N[C@@H](CCC(=O)O)C(=O)NCC(=O)N[C@H](C(=O)N[C@@H](Cc1c[nH]cn1)C(=O)N[C@@H](CO)C(=O)N[C@H](C(=O)O)[C@@H](C)O)[C@@H](C)O [Peptide D15T] (H-DEAGSEADHEGTHST-OH; N-terminus and C-terminus assumed) | 0.00% | 108.50 ± 0.92% | 107.55 ± 1.48% | 108.50 ± 5.15% | 0.00% | no activity |  |
| CC(C)C[C@H](NC(=O)[C@H](Cc1ccccc1)NC(=O)[C@H](CC(=O)O)NC(=O)CNC(=O)[C@H](CCC(=O)O)NC(=O)CNC(=O)[C@H](CO)NC(=O)[C@@H](N)CC(=O)O)C(=O)N[C@@H](C)C(=O)N[C@@H](CCC(=O)O)C(=O)NCC(=O)NCC(=O)NCC(=O)N[C@H](C(=O)N[C@@H](CCCNC(=N)N)C(=O)O)C(C)C [Peptide D15R] (H-DSGEGDFLAEGGGVR-OH; N-terminus and C-terminus assumed) |  | 101.32 ± 1.92% | 101.25 ± 0.19% | 103.00 ± 1.49% |  | no activity |  |
| CC(C)[C@H](NC(=O)[C@@H](NC(=O)[C@H](Cc1ccccc1)NC(=O)CNC(=O)[C@H](CCC(=O)O)NC(=O)[C@H](CC(N)=O)NC(=O)[C@H](CCC(=O)O)NC(=O)[C@H](CCCCN)NC(=O)[C@@H](NC(=O)[C@H](CCC(=O)O)NC(=O)[C@H](CCC(=O)O)NC(=O)[C@@H](N)CO)[C@@H](C)O)[C@@H](C)O)C(=O)N[C@H](C(=O)N[C@@H](C)C(=O)N[C@@H](CCC(=O)O)C(=O)NCC(=O)N[C@@H](CCCCN)C(=O)O)[C@@H](C)O [Peptide S17K] (H-SEETKENEGFTVTAEGK-OH; N-terminus and C-terminus assumed) | 0.00% | 103.47 ± 2.00% | 102.69 ± 1.37% | 101.73 ± 1.82% |  | no activity |  |
| CC(C)C[C@H](NC(=O)CNC(=O)[C@H](CC(C)C)NC(=O)[C@H](C)NC(=O)[C@H](C)NC(=O)[C@H](CCC(N)=O)NC(=O)[C@H](CO)NC(=O)[C@H](C)NC(=O)[C@H](C)NC(=O)[C@@H](NC(=O)[C@H](CC(C)C)NC(=O)[C@H](CCCCN)NC(=O)[C@@H](N)CCCCN)C(C)C)C(=O)O [Peptide K13L] (H-KKLVAASQAALGL-OH) |  | 105.95 ± 1.47% | 105.04 ± 0.20% | 101.26 ± 0.38% |  |  | No significant difference in survival |
